How the values were obtained:
[1] = test system: IL-2 release by (PMA+Ionomycin)-stimulated Jurkat cells; experiment: IL-2 release assay (IL-2 ELISA); assay type: cell-based; conditions: Homo sapiens; PMA + Ionomycine stimulated Jurkat cells
Experimental: The Ability of the Compounds According to Formula I to Modulate the Inflammatory Response by Inhibiting the Release of IL-2 was Assessed Using the Following Protocol
JNK pathway activation triggers the production of inflammatory cytokines such as IL-2. JNK can be activated by external stimuli such as PMA and Ionomycine and IL-2 production can be measured via an IL-2 ELISA test. Comparative measurements with and without the compounds of the invention according to the following protocol measure the ability of the compounds to prevent to stress-mediated IL-2 release.
Jurkat cells, a human T cell leukemia cell line (American Type Culture Collection # TIB 152) were cultured in RPMI 1640 medium (Gibco, BRL) supplemented with 10% of […] fetal calf serum (FCS), Glutamine and Penstrep. The cell suspension in the medium is diluted to give 2.10^6 cells/mL. The cells were plated (2.10^5 cells/well) on a 96-well plate containing different concentrations of a compound according to formula I (final concentration of compounds, 10, 3, 1, 0.3, 0.1 μM). This mixture is incubated 30 minutes at 37° C. in a humidified CO2 atmosphere. Cells were then treated with 10 μl PMA (Phorbolmyristate-13 Acetate-12)+Ionomycine (0.1 μM and 1 μM final concentration) in all wells except negative control. In wells without compounds, 10 μl of RPMI 2% DMSO (=0.1% final) is added. Cells are incubated 24 hours at 37° C. and then the supernatant harvested (freeze at −20° C. if not used the same day) prior to performing IL-2 ELISA test on the supernatant.
IL-2 release into the medium by (PMA+Iononomycin)-stimulated Jurkat cells, in presence or absence of test compounds may be assayed by ELISA. Following the procedure described below.
Monoclonal anti-human IL-2 antibody (MAB602) (capture), biotinylated anti-human IL-2 antibody (BAF202) (detection) and recombinant human IL-2 (202-IL-010) (standard) from From R&D Systems are used. […]
• 1. […] Optical density is measured using a microtiter plate reader set to 450 nm with correction at 570 nm.

[2] = molecular target: GST-JNK3 (Homo sapiens, UniProt P53779); experiment: JNK3 in vitro assay (33P incorporation into c-jun, SPA); assay type: biochemical
Experimental: The phosphorylation of c-jun by JNK2 or JNK3 may be followed by monitoring the incorporation of ^33P into c-jun following the protocol below. The inhibitory activity of the compounds according to formula I, in respect of c-jun phosphorylation through JNK, is determined by calculating the phosphorylation activity of a JNK in the presence or absence of the test compounds according to formula I.
JNK3 and/or -2 assays are performed in 96 well NM plates: incubation of 0.5 μg of recombinant, pre-activated GST-JNK3 or GST-JNK2 with 1 μg of recombinant, biotinylated GST-c-Jun and 2 μM ^33γ-ATP (2 nCi/μl), in the presence or absence of compounds according to formula I and in a reaction volume of 50 μl containing 50 mM Tris-HCl, pH 8.0; 10 mM MgCl2; 1 mM Dithiothreitol, and 100 μM NaVO4. The incubation is performed for 120 min. at R.T and stopped upon addition of 200 μl of a solution containing 250 μg of Streptavidine-coated SPA beads (Amersham, Inc.)*, 5 mM EDTA, 0.1% Triton X-100 and 50 μM ATP, in phosphate saline buffer. After incubation for 60 minutes at RT, beads are sedimented by centrifugation at 1500×g for 5 minutes, resuspended in 200 μl of PBS containing 5 mM EDTA, 0.1% Triton X-100 and 50 μM ATP and the radioactivity measured in a scintillation β counter, following sedimentation of the beads as described above. By replacing biotinylated GST-c Jun with biotinylated GST-1ATF2 or biotinylated myelin basic protein, this assay may also be used to measure inhibition of pre-activated p38 and ERK MAP Kinases, respectively.

Sequence of GST-JNK3 (P53779 whole entry): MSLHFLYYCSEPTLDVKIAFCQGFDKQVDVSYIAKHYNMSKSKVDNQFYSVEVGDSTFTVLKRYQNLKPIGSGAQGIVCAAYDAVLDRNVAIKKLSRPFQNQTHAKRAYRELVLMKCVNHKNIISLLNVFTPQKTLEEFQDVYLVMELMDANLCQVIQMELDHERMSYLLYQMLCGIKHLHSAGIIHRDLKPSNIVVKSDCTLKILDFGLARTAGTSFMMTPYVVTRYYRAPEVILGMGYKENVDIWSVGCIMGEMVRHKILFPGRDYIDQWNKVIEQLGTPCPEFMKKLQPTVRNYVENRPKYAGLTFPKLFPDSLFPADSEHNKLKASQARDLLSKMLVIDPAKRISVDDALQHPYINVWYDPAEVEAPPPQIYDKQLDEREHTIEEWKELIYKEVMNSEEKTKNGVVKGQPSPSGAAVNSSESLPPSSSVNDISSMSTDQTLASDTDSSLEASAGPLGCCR

IC50 [1]: < 800 nM
IC50 [2]: < 600 nM
Compound: COc1cccc(C(=O)NCc2ccc(S(=O)(=O)N3CCC(NCc4ccc(C(F)(F)F)cc4)CC3)s2)c1 [Example 1, 3-Methoxy-N-{[5-({4-[(4-trifluoromethylbenzyl)amino]piperidin-1-yl}sulfonyl)thien-2-yl]methyl}benzamide]

Reference: patent US7544700B2, “Pharmaceutically active sulfonamide derivatives bearing both lipophilic and ionisable moieties as inhibitors of protein JunKinases” (Laboratoires Serono SA, priority 2000, dated 2009)
